PMC3049593 (British Journal of Cancer, 2011)

System: PC3 tumours
Assay: PC3 prostate xenograft model
Type: in vivo, nude mice
Procedure: In the orthotopic Hep3b2.1-7 human liver cancer model, treatment of mice (n=10) began 14 days after inoculation of 2.5 × 10^6 cells. […] To initiate tumour xenografts, MDA-MB-231, PC3, Cal27 and HepG2 cells were injected s.c. into nude mice (n=8) at 4, 5, 2 and 2 × 10^7 cells ml^−1, respectively. […] In the B16F0 lung metastasis model, 2 × 10^5 cells were injected via the tail vein of C57Bl6 mice (n=8). […] Surface lung macrometastases were counted for each group (n=9) upon study termination. In the intrasplenic HT-29 xenograft model, 1 × 10^6 cells in 100 μl were injected into the spleen. […] Solid tumours were measured in two dimensions (length and width) and the tumour volume (cm^3) was calculated using the equation: V=length × width^2 × π/6. The anti-tumour activity was expressed as percent tumour growth inhibition (%TGI). Further details are available in Supplementary Methods. […]
antibody. […]
staining. For quantification, three independent visual fields (20x magnification) were chosen and positive stained spots or vessels with identifiable lumen were counted.
Angiogenesis inhibition and induction were calculated using the equations: […]
regimen both before and after tumour cell inoculation (days -6, -3, 0, +3, +6) or only after tumour cell inoculation (days 0, +3, +6). B16 cell (2x105) were inoculated via tail vein injections and mice were culled and assessed for lung metastases on day 12. […]

Q: `CC(C)CCC[C@@H](C)[C@H]1CCC2C3CCC4C[C@@H](O[C@@H]5O[C@H](COS(=O)(=O)[O-])[C@@H](O[C@H]6O[C@H](COS(=O)(=O)[O-])[C@@H](O[C@H]7O[C@H](COS(=O)(=O)[O-])[C@@H](O[C@H]8O[C@H](COS(=O)(=O)[O-])[C@@H](OS(=O)(=O)[O-])[C@H](OS(=O)(=O)[O-])[C@H]8OS(=O)(=O)[O-])[C@H](OS(=O)(=O)[O-])[C@H]7OS(=O)(=O)[O-])[C@H](OS(=O)(=O)[O-])[C@H]6OS(=O)(=O)[O-])[C@H](OS(=O)(=O)[O-])[C@H]5OS(=O)(=O)[O-])CC[C@]4(C)C3CC[C@@]21C.[Na+].[Na+].[Na+].[Na+].[Na+].[Na+].[Na+].[Na+].[Na+].[Na+].[Na+].[Na+].[Na+]` (some centres unmarked) [PG545] was tested. Which TGI (20 mg kg^−1 once-weekly s.c.) did it give?
A: The TGI was 74%.

Q: And the TGI (20 mg kg^−1 twice-weekly s.c.)?
A: Its TGI is 83%.
